According to PubChem BioAssay AID2060900 (Molecular Pharmacology Branch, DTP, NCI, 2025):

Tested on: 521955-158-R2-J5-PDC complex spheroids, viability
Assay: Anticancer human tumor 521955-158-R2-J5-PDC patient-derived pancreatic carcinoma cell line growth inhibition [RAS]
Conditions: for viability, T/C: stronger effect = lower value
Method in brief: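 Agents were tested in combination matrices in half-log decrements from a top concentration at or near clinical Cmax (10 microM if undetermined). Targets were multi-cell spheroids of tumour lines plus HUVEC and MSC stromal cells.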

[1] = curve of first compound, second compound 0.000949 µM
[2] = curve of first compound, second compound 0.003 µM
[3] = curve of first compound, second compound 0.00949 µM
[4] = curve of first compound, second compound 0.03 µM
[5] = curve of first compound, second compound 0.0949 µM
[6] = curve of first compound, second compound 0.3 µM
[7] = second compound 0.000949 µM, first compound 0.0316 µM
[8] = second compound 0.000949 µM, first compound 0.1 µM
[9] = second compound 0.000949 µM, first compound 0.316 µM
[10] = second compound 0.000949 µM, first compound 1 µM
[11] = second compound 0.000949 µM, first compound 3.16 µM
[12] = second compound 0.000949 µM, first compound 10 µM
[13] = second compound 0.003 µM, first compound 0.0316 µM
[14] = second compound 0.003 µM, first compound 0.1 µM
[15] = second compound 0.003 µM, first compound 0.316 µM
[16] = second compound 0.003 µM, first compound 1 µM
[17] = second compound 0.003 µM, first compound 3.16 µM
[18] = second compound 0.003 µM, first compound 10 µM
[19] = second compound 0.00949 µM, first compound 0.0316 µM
[20] = second compound 0.00949 µM, first compound 0.1 µM
[21] = second compound 0.00949 µM, first compound 0.316 µM
[22] = second compound 0.00949 µM, first compound 1 µM
[23] = second compound 0.00949 µM, first compound 3.16 µM
[24] = second compound 0.00949 µM, first compound 10 µM
[25] = second compound 0.03 µM, first compound 0.0316 µM
[26] = second compound 0.03 µM, first compound 0.1 µM
[27] = second compound 0.03 µM, first compound 0.316 µM
[28] = second compound 0.03 µM, first compound 1 µM
[29] = second compound 0.03 µM, first compound 3.16 µM
[30] = second compound 0.03 µM, first compound 10 µM
[31] = second compound 0.0949 µM, first compound 0.0316 µM
[32] = second compound 0.0949 µM, first compound 0.1 µM
[33] = second compound 0.0949 µM, first compound 0.316 µM
[34] = second compound 0.0949 µM, first compound 1 µM
[35] = second compound 0.0949 µM, first compound 3.16 µM
[36] = second compound 0.0949 µM, first compound 10 µM
[37] = second compound 0.3 µM, first compound 0.0316 µM
[38] = second compound 0.3 µM, first compound 0.1 µM
[39] = second compound 0.3 µM, first compound 0.316 µM
[40] = second compound 0.3 µM, first compound 1 µM
[41] = second compound 0.3 µM, first compound 3.16 µM
[42] = second compound 0.3 µM, first compound 10 µM
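Also: compound exposure lasted seven days before the viability read.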
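For viability, T/C in this document: spheroids also contain HUVEC endothelial cells and mesenchymal stem cells as stroma.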

CC(=O)OC12COC1CC(O)C1(C)C(=O)C(O)C3=C(C)C(OC(=O)C(O)C(NC(=O)OC(C)(C)C)c4ccccc4)CC(O)(C(OC(=O)c4ccccc4)C21)C3(C)C (configuration not stated) + C=CC(=O)N1CCN(c2nc(OCC3CCCN3C)nc3c(F)c(-c4nc(N)cc(C)c4C(F)(F)F)c(Cl)cc23)C(C)C1
IC50 (curve of first compound, second compound 0.00316 µM): < 31.6 nM
IC50 (curve of first compound, second compound 0.01 µM): < 31.6 nM
IC50 (curve of first compound, second compound 0.0316 µM): < 31.6 nM
IC50 (curve of first compound, second compound 0.1 µM): < 31.6 nM
IC50 (curve of first compound, second compound 0.316 µM): < 31.6 nM
IC50 (curve of first compound, second compound 1 µM): < 31.6 nM
viability, T/C (second compound 0.00316 µM, first compound 0.0316 µM): 37.3%
viability, T/C (second compound 0.00316 µM, first compound 0.1 µM): 34.1%
viability, T/C (second compound 0.00316 µM, first compound 0.316 µM): 24.9%
viability, T/C (second compound 0.00316 µM, first compound 1 µM): 29.8%
viability, T/C (second compound 0.00316 µM, first compound 3.16 µM): 40.8%
viability, T/C (second compound 0.00316 µM, first compound 10 µM): 64.4%
viability, T/C (second compound 0.01 µM, first compound 0.0316 µM): 38.5%
viability, T/C (second compound 0.01 µM, first compound 0.1 µM): 34.3%
viability, T/C (second compound 0.01 µM, first compound 0.316 µM): 21.5%
viability, T/C (second compound 0.01 µM, first compound 1 µM): 30.6%
viability, T/C (second compound 0.01 µM, first compound 3.16 µM): 41.4%
viability, T/C (second compound 0.01 µM, first compound 10 µM): 52.6%
viability, T/C (second compound 0.0316 µM, first compound 0.0316 µM): 39.7%
viability, T/C (second compound 0.0316 µM, first compound 0.1 µM): 40.6%
viability, T/C (second compound 0.0316 µM, first compound 0.316 µM): 28.2%
viability, T/C (second compound 0.0316 µM, first compound 1 µM): 29.7%
viability, T/C (second compound 0.0316 µM, first compound 3.16 µM): 44.9%
viability, T/C (second compound 0.0316 µM, first compound 10 µM): 44.9%
viability, T/C (second compound 0.1 µM, first compound 0.0316 µM): 34.3%
viability, T/C (second compound 0.1 µM, first compound 0.1 µM): 31.5%
viability, T/C (second compound 0.1 µM, first compound 0.316 µM): 33.1%
viability, T/C (second compound 0.1 µM, first compound 1 µM): 25.6%
viability, T/C (second compound 0.1 µM, first compound 3.16 µM): 35.8%
viability, T/C (second compound 0.1 µM, first compound 10 µM): 59.3%
viability, T/C (second compound 0.316 µM, first compound 0.0316 µM): 38.4%
viability, T/C (second compound 0.316 µM, first compound 0.1 µM): 33.9%
viability, T/C (second compound 0.316 µM, first compound 0.316 µM): 21.7%
viability, T/C (second compound 0.316 µM, first compound 1 µM): 34.6%
viability, T/C (second compound 0.316 µM, first compound 3.16 µM): 46.1%
viability, T/C (second compound 0.316 µM, first compound 10 µM): 51.9%
viability, T/C (second compound 1 µM, first compound 0.0316 µM): 31.8%
viability, T/C (second compound 1 µM, first compound 0.1 µM): 32.3%
viability, T/C (second compound 1 µM, first compound 0.316 µM): 19.1%
viability, T/C (second compound 1 µM, first compound 1 µM): 22%
viability, T/C (second compound 1 µM, first compound 3.16 µM): 46.3%
viability, T/C (second compound 1 µM, first compound 10 µM): 55.5%

CC1(O)CCCC1n1c(=O)c(C(F)F)cc2cnc(NC3CCN(S(C)(=O)=O)CC3)nc21 (configuration not stated)
viability, T/C (compound 0.0316 µM): 92.5% [middle of 4 runs]
viability, T/C (compound 0.1 µM): 76.6% [middle of 4 runs]
viability, T/C (compound 1 µM): 75.7% [middle of 4 runs]
viability, T/C (compound 3.16 µM): 118% [middle of 4 runs]
viability, T/C (compound 10 µM): 14.9% [middle of 4 runs]
IC50 (curve of compound): 5.85 µM [middle of 4 runs]

Cc1nc(N2CCC3(CC2)COC(C)C3N)c(CO)nc1Sc1ccnc(N)c1Cl (configuration not stated) + CCn1c(-c2cc(N3CCN(C)CC3)cnc2C(C)OC)c2c3cc(ccc31)-c1csc(n1)CC(NC(=O)C1CC1C)C(=O)N1CCCC(N1)C(=O)OCC(C)(C)C2
IC50 [1]: < 31.6 nM
IC50 [2]: < 31.6 nM
IC50 [3]: < 31.6 nM
IC50 [4]: < 31.6 nM
IC50 [5]: < 31.6 nM
IC50 [6]: < 31.6 nM
viability, T/C [7]: 39.5%
viability, T/C [8]: 31%
viability, T/C [9]: 32.7%
viability, T/C [10]: 39.2%
viability, T/C [11]: 36.4%
viability, T/C [12]: 33.3%
viability, T/C [13]: 36.2%
viability, T/C [14]: 40.7%
viability, T/C [15]: 35.3%
viability, T/C [16]: 31.3%
viability, T/C [17]: 23.8%
viability, T/C [18]: 20.9%
viability, T/C [19]: 27.4%
viability, T/C [20]: 32.1%
viability, T/C [21]: 25%
viability, T/C [22]: 18.3%
viability, T/C [23]: 18.7%
viability, T/C [24]: 10.8%
viability, T/C [25]: 15.9%
viability, T/C [26]: 18.1%
viability, T/C [27]: 12.8%
viability, T/C [28]: 13.9%
viability, T/C [29]: 11.8%
viability, T/C [30]: 11.7%
viability, T/C [31]: 14.3%
viability, T/C [32]: 11%
viability, T/C [33]: 15.1%
viability, T/C [34]: 7.6%
viability, T/C [35]: 11.3%
viability, T/C [36]: 10.7%
viability, T/C [37]: 9.07%
viability, T/C [38]: 8.16%
viability, T/C [39]: 8.08%
viability, T/C [40]: 6.34%
viability, T/C [41]: 7.5%
viability, T/C [42]: 9.18%

Cc1nc(N2CCC3(CC2)COC(C)C3N)c(CO)nc1Sc1ccnc(N)c1Cl (configuration not stated) + CCn1c(-c2cccnc2C(C)OC)c2c3cc(ccc31)N1CCOC(CC(NC(=O)C(C(C)C)N(C)C(=O)C3(F)CCN(C(=O)C#CC(C)(C)N(C)C)CC3)C(=O)N3CCCC(N3)C(=O)OCC(C)(C)C2)C1
IC50 [1]: > 10000 nM
IC50 [2]: 5110 nM
IC50 [3]: 3120 nM
IC50 [4]: 1190 nM
IC50 [5]: 4390 nM
IC50 [6]: 546 nM
viability, T/C [7]: 72.8%
viability, T/C [8]: 64%
viability, T/C [9]: 50.8%
viability, T/C [10]: 59.4%
viability, T/C [11]: 52.6%
viability, T/C [12]: 50.8%
viability, T/C [13]: 74.3%
viability, T/C [14]: 61.3%
viability, T/C [15]: 73.6%
viability, T/C [16]: 61.4%
viability, T/C [17]: 49.4%
viability, T/C [18]: 46.4%
viability, T/C [19]: 75.7%
viability, T/C [20]: 61.8%
viability, T/C [21]: 61.6%
viability, T/C [22]: 50.4%
viability, T/C [23]: 50.1%
viability, T/C [24]: 48.4%
viability, T/C [25]: 83%
viability, T/C [26]: 64.4%
viability, T/C [27]: 54.2%
viability, T/C [28]: 49.2%
viability, T/C [29]: 50.8%
viability, T/C [30]: 47%
viability, T/C [31]: 68%
viability, T/C [32]: 66.3%
viability, T/C [33]: 55.8%
viability, T/C [34]: 54.1%
viability, T/C [35]: 55%
viability, T/C [36]: 45.6%
viability, T/C [37]: 59.1%
viability, T/C [38]: 46.3%
viability, T/C [39]: 53.9%
viability, T/C [40]: 51.6%
viability, T/C [41]: 45.4%
viability, T/C [42]: 42.8%

CC(Nc1ccc2c(c1)OCCn1cc(N3C(=O)OCC3C(F)F)nc1-2)C(N)=O (configuration not stated)
viability, T/C (compound 0.1 µM): 57.5% [middle of 4 runs]
viability, T/C (compound 0.316 µM): 41.1% [middle of 4 runs]
viability, T/C (compound 1 µM): 31% [middle of 4 runs]
viability, T/C (compound 10 µM): 23.5% [middle of 4 runs]
IC50 (curve of compound): 136 nM [middle of 4 runs]
